In brackets after ≈: the same amount, converted by molar mass. Where two headings read alike, the source gives them in different places.
How the values were obtained:
HSV, isolate-1 = experiment: Anti-virus activity on HEL-F, HSV isolate-1 (Pharmacological Test 1, Sidwell et al. method); assay type: cell-based, herpes simplex virus clinical isolated strain 1; conditions: for MIC: read-out: MIC (minimal inhibitory concentration for cytopathogenic effect caused by the infection)
Protocol: (§1) In accordance with the Sidwell et al. method (cf. Applied Microbiology, Vol. 22, No. 5, P. 797, 1971), the anti-virus activities of 5-bromovinyl- and 5-chlorovinyl-araU on human embryonic lung fibroblasts (HEL-F) were determined by using as controls 5-iodo-2'-deoxyuridine (IDU) and arabinofuranosyladenine (araA).
(§2) *MIC = minimal inhibitory concentration for cytopathogenic effect caused
^(2) HSV, isolate1 = herpes simplex virus clinical isolated strain 1

HSV-1, VR-3 = experiment: Anti-virus activity on HEL-F, HSV-1 VR-3 (Pharmacological Test 1, Sidwell et al. method); assay type: cell-based, herpes simplex virus type 1 VR3 strain
Protocol: as §1, §2
^(1) HSV1, VR3 = herpes simplex virus type 1 VR3 strain

HEL-F [1] = experiment: Effect on proliferation of HEL-F (Pharmacological Test 2, Machida et al. method); assay type: cell-based, human; conditions: Test 2, relative to IDU and araA
Protocol: (§3) The effects of 5-bromovinyl araU and 5-chlorovinyl-araU on proliferation of HEL-F were compared with those of IDU and araA in accordance with the Machida et al. method (cf. Antimicrobial Agents and Chemotherapy, Vol. 16, No. 2, p. 158, 1979).
(§4) In the growth medium of HEL-F under proliferation (culture medium: Eagle's minimal essential medium supplemented with 10% fetal bovine serum) was added a test compound diluted in serial two-fold dilution and then incubated for 4 days. The numbers of increased cells with various concentrations of the compound tested were compared with those of the control groups wherein no compound was added.

[2] = as above; assay type: cell-based, human; conditions: human, hel-f cells
Protocol: as §3, §4

HSV-2 = experiment: Anti-HSV-2 activity (Pharmacological Test 3); assay type: cell-based, type-2 herpes (HSV-2); conditions: for anti-HSV-2 activity compared with 5-vinyl-araU: relative to 5-vinyl-araU
Protocol: as §1
(§5) In conformance with Pharmacological Tests 1 and 2, the anti-virus activities and cell proliferations of 5-bromovinyl-araU and 5-chlorovinyl-araU were compared with those of 5-vinyl-araU and 5-bromovinyl-2'-deoxyuridine (5-bromovinyl-dUrd).

herpes virus = experiment: Anti-virus activity, overall statement; assay type: cell-based; conditions: for anti-virus activity compared with IDU and araA: Test 1, relative to IDU and araA; for anti-virus activity compared with 5-bromovinyl-dUrd: Test 3, relative to 5-bromovinyl-dUrd
Protocol: as §1, §5

HEL-F [3] = experiment: Anti-HEL-F, cell proliferation (Pharmacological Test 3); assay type: cell-based, human; conditions: for HEL-F proliferation inhibitory effect compared with 5-bromovinyl-dUrd: Test 3, relative to 5-bromovinyl-dUrd; for cell proliferation inhibiting activity relative to 5-vinyl-araU: Test 3, relative to 5-vinyl-araU
Protocol: as §3, §4, §5

[4] = as above; assay type: cell-based, human; conditions: human, hel-f cells
Protocol: as §3, §4, §5

VZV [5] = experiment: Anti-VZV activity (Pharmacological Test 3); assay type: cell-based, varicella-zoster virus; conditions: for MIC: Human alphaherpesvirus 3
Protocol: as §1, §5

HSV-1 = experiment: Anti-HSV-1 activity (Pharmacological Test 3); assay type: cell-based, herpes simplex virus type 1; conditions: for anti-HSV-1 activity compared with 5-vinyl-araU: Test 3, relative to 5-vinyl-araU
Protocol: as §1, §5

VZV [6] = experiment: Anti-virus activity on HEL-F, VZV (Pharmacological Test 1, Sidwell et al. method); assay type: cell-based, varicella-zoster virus; conditions: for MIC: Human alphaherpesvirus 3, read-out: MIC (minimal inhibitory concentration for cytopathogenic effect caused by the infection)
Protocol: as §1, §2
^(3) VZV = varicellazoster virus

[7] = Human alphaherpesvirus 1, HSV-1 VR-3, HEL-F, Test 1, read-out: MIC (minimal inhibitory concentration for cytopathogenic effect caused by the infection)
[8] = HEL-F under proliferation, incubated for 4 days, Test 2, read-out: ID50 (50% inhibition of proliferation)
[9] = Human alphaherpesvirus 2, Test 3, read-out: Anti-HSV-2 MIC
[10] = Human alphaherpesvirus 1, Test 3, read-out: Anti-HSV-1 MIC

Row | SMILES | VR (virus rating) (HSV, isolate-1; HSV isolate-1, HEL-F, Test 1) | MIC (HSV, isolate-1; HSV isolate-1, HEL-F, Test 1) | VR (virus rating) (HSV-1, VR-3; HSV-1 VR-3, HEL-F, Test 1) | MIC (HSV-1, VR-3; [7]) | inhibition of cell proliferation compared with IDU and araA (HEL-F [1]) | CC50 at 96 h [2, 8] | MIC (HSV-2; [9]) | Anti-HSV-2 VR (HSV-2; Test 3) | anti-virus activity compared with IDU and araA (herpes virus) | anti-virus activity compared with 5-bromovinyl-dUrd (herpes virus) | HEL-F proliferation inhibitory effect compared with 5-bromovinyl-dUrd (HEL-F [3]) | cell proliferation inhibiting activity relative to 5-vinyl-araU (HEL-F [3]) | CC50 at 96 h [4] | Anti-VZV VR (VZV [5]) | MIC (VZV [5]) | MIC (HSV-1; [10]) | Anti-HSV-1 VR (HSV-1; Test 3) | anti-HSV-1 activity compared with 5-vinyl-araU (HSV-1) | VR (virus rating) (VZV [6]) | MIC (VZV [6]) | further results
1 | O=c1[nH]c(=O)n([C@@H]2O[C@H](CO)[C@@H](O)[C@@H]2O)cc1/C=C/Cl [5-chlorovinyl-araU, (E)-5-(2-chlorovinyl)-1-β-D-arabinofuranosyluracil] | 3.1 | 0.1 µg/mL (≈ 0.328 µM) | 3.3 | 0.1 µg/mL (≈ 0.328 µM) | markedly weak inhibition of cell proliferation | > 500 µg/mL | > 1000 µg/mL | 0.2 | stronger anti-virus activities | potencies similar to that of 5-bromovinyl-dUrd | less than that of 5-bromovinyl-dUrd | one half relative to 5-vinyl-araU | 1000 µg/mL (≈ 3280 µM) | 3.4 | 0.1 µg/mL (≈ 0.328 µM) | 0.1 µg/mL (≈ 0.328 µM) | 3.5 | significantly greater anti-HSV-1 activity | 3.4 | 0.1 µg/mL (≈ 0.328 µM) | 
2 | C=Cc1cn([C@@H]2O[C@H](CO)[C@@H](O)[C@@H]2O)c(=O)[nH]c1=O [5-vinyl-araU, 5-vinylarabinofuranosyluracil, reference compound] |  |  |  |  |  |  | 1 µg/mL (≈ 3.7 µM) | 2.7 |  |  |  |  | 650 µg/mL (≈ 2410 µM) | 2.9 | 0.32 µg/mL (≈ 1.18 µM) | 0.1 µg/mL (≈ 0.37 µM) | 3.3 |  |  |  | 
3 | O=c1[nH]c(=O)n([C@H]2C[C@H](O)[C@@H](CO)O2)cc1I [IDU, 5-iodo-2'-deoxyuridine, reference compound] | 2.1 | 3.2 µg/mL (≈ 9.04 µM) | 2.4 | 3.2 µg/mL (≈ 9.04 µM) |  | 6 µg/mL (≈ 16.9 µM) |  |  |  |  |  |  |  |  |  |  |  |  | 2.3 | 3.2 µg/mL (≈ 9.04 µM) | 
4 | Nc1ncnc2c1ncn2[C@@H]1O[C@H](CO)[C@@H](O)[C@@H]1O [araA, arabinofuranosyladenine, reference compound] | 1.9 |  | 1.9 |  |  |  |  |  |  |  |  |  |  |  |  |  |  |  |  |  | MIC (HSV, isolate-1): 10 µg/mL (≈ 37.4 µM); MIC (HSV-1, VR-3; Human alphaherpesvirus 1, read-out: MIC (minimal inhibitory concentration for cytopathogenic effect caused by the infection)): 10 µg/mL (≈ 37.4 µM); CC50 at 96 h [2]: 4 µg/mL (≈ 15 µM)
5 | O=c1[nH]c(=O)n([C@H]2C[C@H](O)[C@@H](CO)O2)cc1/C=C/Br [5-bromovinyl-dUrd, 5-bromovinyl-2'-deoxyuridine, reference compound] |  |  |  |  |  |  |  | 0.7 |  |  |  |  |  |  |  |  | 3.7 |  |  |  | MIC (HSV-2; Human alphaherpesvirus 2, read-out: Anti-HSV-2 MIC): 100 µg/mL (≈ 300 µM); anti-HSV-2 activity compared with 5-vinyl-araU (HSV-2): inferior to 5-vinyl-araU; MIC (HSV-1; Human alphaherpesvirus 1, read-out: Anti-HSV-1 MIC): 0.032 µg/mL (≈ 0.0961 µM)
6 | O=c1[nH]c(=O)n([C@@H]2O[C@H](CO)[C@@H](O)[C@@H]2O)cc1/C=C/Br [5-bromovinyl-araU, (E)-5-(2-bromovinyl)-1-β-D-arabinofuranosyluracil] | 3.8 | 0.032 µg/mL (≈ 0.0917 µM) | 3.8 | 0.032 µg/mL (≈ 0.0917 µM) | markedly weak inhibition of cell proliferation | > 1000 µg/mL | 100 µg/mL (≈ 286 µM) | 0.9 | stronger anti-virus activities | potencies similar to that of 5-bromovinyl-dUrd | less than that of 5-bromovinyl-dUrd | one half relative to 5-vinyl-araU | > 1000 µg/mL | 3.5 | 0.1 µg/mL (≈ 0.286 µM) | 0.032 µg/mL (≈ 0.0917 µM) | 3.7 | significantly greater anti-HSV-1 activity | 3.5 | 0.1 µg/mL (≈ 0.286 µM) | anti-HSV-2 activity compared with anti-HSV-1 activity (HSV-2; HSV-2 versus HSV-1): lower than that on type-1 herpes (HSV-1); anti-HSV-2 activity compared with 5-vinyl-araU (HSV-2): inferior to 5-vinyl-araU
